Results as given in patent US6495591B1, “Fungal efflux pump inhibitors” (Essential Therapeutics, Inc., priority 1997, dated 2002).
In brackets after ≈: the same amount, converted by molar mass. Where two headings read alike, the source gives them in different places.

What was measured:
[1] = tested on: S. cerevisiae YEM-40 (CgCDR, MF, introduced); assay: microbe, parasite or virus in culture; format: cell-based; conditions: Saccharomyces cerevisiae, read-out: MIC Mb alone
[2] = tested on: C. albicans YEM-21 (BEN deleted); assay: microbe, parasite or virus in culture; format: cell-based
[3] = tested on: C. albicans YEM-27 (CDR1, CDR2, BEN, FLU1 deleted); assay: microbe, parasite or virus in culture; format: cell-based
[4] = tested on: C. albicans YEM-12 (low level CDR1 expressor); assay: microbe, parasite or virus in culture; format: cell-based
[5] = tested on: C. albicans YEM-13 (BEN overexpressor); assay: microbe, parasite or virus in culture; format: cell-based; conditions: Candida albicans, read-out: MIC Mb alone
[6] = tested on: C. glabrata YEM-16 (low level CgBEN and CgCDR expression); assay: microbe, parasite or virus in culture; format: cell-based
[7] = tested on: C. glabrata YEM-18 (low level CgBEN and CgCDR expression); assay: microbe, parasite or virus in culture; format: cell-based
[8] = tested on: C. glabrata YEM-17 (CgCDR overexpressor); assay: microbe, parasite or virus in culture; format: cell-based
[9] = tested on: C. glabrata YEM-19 (CgCDR overexpression, higher than YEM-17); assay: microbe, parasite or virus in culture; format: cell-based
[10] = tested on: mammalian P-glycoprotein multi-drug resistant pump; format: cell-based, mouse
Experimental: The inhibitory effect of milbemycin β1 against the mammalian P-glycoprotein multi-drug resistant pump was determined following the procedure described by Tsuruo et al (Cancer Res., 1981. 41:1967-1972) with slight modification. The cytotoxicity of antitumor agent, adriamycin, against adriamycin sensitive P388 cell line (mouse leukemia) and its adriamycin resistant subline line (P388/ADM) was measured in the presence of various concentrations of milbemycin β1. […] The assay is performed in serum-free media containing 20 μM of 2-mercaptoethanol. Chemosensitivity to adriamycin was determined […] based on the reduction of MTT (3-[4,5-dimethylthiazol-2-yl]-2,5-diphenyltetrazolium bromide) into blue formazan.

[11] = tested on: C. glabrata YEM-19 (CgCDR overexpressor); format: cell-based
BenR pump = BenR pump (Candida albicans, UniProt P28873); assay: Follow-up evaluation of screening hit, efflux pump inhibition; conditions: follow-up evaluation of screen hit
Experimental: An exemplary screen uses C. albicans (e.g., ATCC10231) grown in YPD medium (medium described in “Guide to Yeast Genetics and Molecular Biology”, in Methods in Enzymolopy, vol. 194, pp.13, 1991,; Academic Press; Ed. C. Guthrie and G. Fink) at 30° C. […] Test and control cultures are inoculated with log-phase cells to provide approximately 10^3 CFU/ml. Cultures are incubated at 30° C. for 20-22 hrs. Cell concentration is determined by taking the OD600.

[12] = tested on: S. cerevisiae YEM-1 overexpressing CDR1 (C. albicans); assay: microbe, parasite or virus in culture; format: cell-based; set-up: MIC Reduction Factor, fluconazole: unit not given beside the values; conditions: for MIC: Saccharomyces cerevisiae
[13] = tested on: C. albicans clinical isolates (n = 33); assay: microbe, parasite or virus in culture; format: cell-based
C. krusei = assay: microbe, parasite or virus in culture; format: cell-based
[14] = Candida albicans, read-out: MIC Mb alone
[15] = Nakaseomyces glabratus, read-out: MIC of milbemycin β1 (MB) alone
[16] = YEM-1 (CDR1), milbemycin α9 at FEPImax
[17] = YEM-1, milbemycin α9 at FEPImax

BenR pump, sequence (P28873 whole entry): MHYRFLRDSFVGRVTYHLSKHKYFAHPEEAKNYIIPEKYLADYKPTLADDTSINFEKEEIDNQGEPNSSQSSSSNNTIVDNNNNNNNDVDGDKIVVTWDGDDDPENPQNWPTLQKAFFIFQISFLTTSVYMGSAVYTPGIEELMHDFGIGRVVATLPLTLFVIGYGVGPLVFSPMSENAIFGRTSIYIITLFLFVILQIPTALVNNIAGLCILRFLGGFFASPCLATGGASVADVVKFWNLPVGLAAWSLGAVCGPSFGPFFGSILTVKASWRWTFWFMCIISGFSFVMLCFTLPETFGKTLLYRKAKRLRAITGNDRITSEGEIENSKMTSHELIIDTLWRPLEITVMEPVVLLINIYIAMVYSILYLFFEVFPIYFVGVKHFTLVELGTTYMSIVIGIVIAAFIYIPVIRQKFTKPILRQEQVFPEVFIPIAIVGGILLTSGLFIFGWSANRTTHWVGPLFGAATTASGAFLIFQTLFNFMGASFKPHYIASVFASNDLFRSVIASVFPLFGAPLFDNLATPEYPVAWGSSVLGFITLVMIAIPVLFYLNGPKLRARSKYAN

CO[C@H]1C[C@@]2(O)/C(CO)=C/C=C/[C@H](C)C/C(C)=C/C[C@@H]3C[C@@H](C[C@]4(CC[C@H](C)[C@@H](C)O4)O3)OC(=O)[C@@H]2C=C1C [Compound 6, Milbemycin β1]
MIC [1]: 8 µg/mL (≈ 14.7 µM) | MIC [2, 14]: 16 µg/mL (≈ 29.4 µM) | MIC of fluconazole, Flu + Mb (2.5 μg/ml) ([2]; YEM-21, BEN deleted, milbemycin β1 2.5 μg/ml): 0.03 µg/mL | MIC [3, 14]: 16 µg/mL (≈ 29.4 µM) | MIC of fluconazole, Flu + Mb (2.5 μg/ml) ([3]; YEM-27, all four pumps deleted, milbemycin β1 2.5 μg/ml): 0.03 µg/mL | Effect on fluconazole susceptibility ([3]; YEM-27, strain which lacked all identified efflux pumps): No effect | MIC [4, 14]: 32 µg/mL (≈ 58.7 µM) | MIC of fluconazole, Flu + Mb (2.5 μg/ml) ([4]; YEM-12, milbemycin β1 2.5 μg/ml): 0.25 µg/mL | MIC [5]: 32 µg/mL (≈ 58.7 µM) | MIC [6, 15]: > 64 µg/mL | Fluconazole MIC with 2.5 μg/ml milbemycin β1 ([6]; YEM-16): 1 µg/mL | Fluconazole MIC with 5 μg/ml milbemycin β1 ([6]; YEM-16): 2 µg/mL | Fluconazole MIC with 10 μg/ml milbemycin β1 ([6]; YEM-16): 2 µg/mL | Fluconazole MIC with […] milbemycin β1 ([6]; YEM-16): 2 µg/mL | MIC [7, 15]: > 64 µg/mL | Fluconazole MIC with 2.5 μg/ml milbemycin β1 ([7]; YEM-18): 2 µg/mL | Fluconazole MIC with 5 μg/ml milbemycin β1 ([7]; YEM-18): 2 µg/mL | Fluconazole MIC with 10 μg/ml milbemycin β1 ([7]; YEM-18): 2 µg/mL | Fluconazole MIC with […] milbemycin β1 ([7]; YEM-18): 2 µg/mL | MIC [8, 15]: > 64 µg/mL | Fluconazole MIC with 2.5 μg/ml milbemycin β1 ([8]; YEM-17): 4 µg/mL | Fluconazole MIC with 5 μg/ml milbemycin β1 ([8]; YEM-17): 2 µg/mL | Fluconazole MIC with 10 μg/ml milbemycin β1 ([8]; YEM-17): 2 µg/mL | Fluconazole MIC with […] milbemycin β1 ([8]; YEM-17): 8 µg/mL | MIC [9, 15]: > 64 µg/mL | Fluconazole MIC with 2.5 μg/ml milbemycin β1 ([9]; YEM-19): 8 µg/mL | Fluconazole MIC with 5 μg/ml milbemycin β1 ([9]; YEM-19): 2 µg/mL | Fluconazole MIC with 10 μg/ml milbemycin β1 ([9]; YEM-19): 2 µg/mL | Fluconazole MIC with […] milbemycin β1 ([9]; YEM-19): 32 µg/mL | Potency as inhibitor of the mammalian p-glycoprotein multi-drug resistant pump ([10]; compared with verapamil): potency similar to that of verapamil | Ratio [P388/A]/[P388] ([10]; inhibitor 0.06 μg/ml): 220 | Ratio [P388/A]/[P388] ([10]; inhibitor 0.25 μg/ml): 75 | Ratio [P388/A]/[P388] ([10]; inhibitor 0.5 μg/ml): 32 | Ratio [P388/A]/[P388] ([10]; inhibitor 1 μg/ml): 23 | Ratio [P388/A]/[P388] ([10]; inhibitor 2 μg/ml): 4 | Ratio [P388/A]/[P388] ([10]; inhibitor 3.125 μg/ml): 5 | Minimal concentration required to reduce the MIC of fluconazole by sixteen-fold [11]: 2.5 µg/mL | Inhibition of the BenR pump (BenR pump): did not appreciably inhibit the BenR pump

C/C1=C\C[C@@H]2C[C@@H](C[C@]3(CC[C@H](C)[C@@H](C)O3)O2)OC(=O)[C@@H]2C=C(COC(=O)c3ccc[nH]3)[C@@H](O)[C@H]3OC/C(=C\C=C\[C@H](C)C1)[C@]32O [Compound 11, Milbemycin α9]
MIC ([12]; read-out: Milbemycin α9 MIC): > 64 µg/mL | MIC ([12]; read-out: Terbinafine MIC in the presence of FEPImax): 0.5 µg/mL | FEPImax (minimal milbemycin α9 conc. for maximum MIC reduction), fluconazole ([12]; YEM-1 (CDR1)): 2 µg/mL | FEPImax (minimal milbemycin α9 conc. for maximum MIC reduction), terbinafine ([12]; YEM-1 (CDR1)): 0.5 µg/mL | Pump inhibition (%), fluconazole [12, 16]: 100% | Pump inhibition (%), terbinafine [12, 16]: 100% | Fluconazole MIC in the presence of FEPImax [12, 17]: 0.5 µg/mL | MIC Reduction Factor, fluconazole [12, 17]: 256 | Fluconazole MIC50, + milbemycin α9 [13]: <0.25 µg/mL | Fluconazole MIC90, + milbemycin α9 [13]: <0.25 µg/mL | Fluconazole MIC Range, + milbemycin α9 [13]: <0.25 to 1 µg/mL | Reduction of fluconazole MIC90 by milbemycin α9 ([13]; C. albicans (n=33)): > 512 fold | Fluconazole MIC, + milbemycin α9 (C. krusei): 16 µg/mL
